Laboratory results reported in US9073895B2 (Boehringer Ingelheim International GmbH, priority 2010, dated 2015).

How the values were obtained:
[1] = biological target: T1, recombinant human FLAP protein (Homo sapiens, UniProt P20292); assay: FLAP binding assay (SPA, displacement of [125I]L-691,831); conditions: membranes of sf9 cells expressing human FLAP, [125I]L-691,831 probe; read-out: hFLAP binding IC50
T1 construct: made in house; host or cells: Sf9 insect cells (membrane fraction, 100,000 x g pellet)
T1 sequence (P20292 1-161): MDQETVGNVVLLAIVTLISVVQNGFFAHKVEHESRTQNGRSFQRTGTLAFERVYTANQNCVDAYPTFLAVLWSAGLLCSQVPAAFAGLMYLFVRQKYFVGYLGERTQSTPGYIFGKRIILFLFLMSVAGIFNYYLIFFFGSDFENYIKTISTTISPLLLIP
In short: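 Membranes from sf9 cells expressing human FLAP (5 μg/well) were bound to WGA SPA beads (200 μg/well). Nonspecific binding was defined with 10 μM unlabelled L-691,831.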

[2] = test system: synthesis of LTB4 in human whole blood; assay: Human whole blood LTB4 production inhibition assay; format: cell-based; conditions: heparinized human whole blood, calcimycin 20 μM, plasma LTB4; read-out: HuWB IC50
In short: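 Steps: compound plus heparinized human whole blood, 15 min at 37° C; add calcimycin to 20 μM final; incubate another 30 min at 37° C; centrifuge at low speed and collect plasma; measure LTB4 with a homogeneous time-resolved fluorescence immunoassay.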

SMILES | IC50 [1] | IC50 [2]
Nc1ncc(-c2ccc(C3(C(=O)Nc4ccc(-c5csnn5)cc4)CCOCC3)cc2)cn1 [Example 25, 4-[4-(2-aminopyrimidin-5-yl)phenyl]-N-[4-(1,2,3-thiadiazol-4-yl)phenyl]tetrahydro-2H-pyran-4-carboxamide] | 0.00865 µM | 0.501 µM
Nc1ncc(-c2ccc(C3(C(=O)Nc4nc(-c5ccncc5)cs4)CCOCC3)cc2)cn1 [Example 60, 4-[4-(2-aminopyrimidin-5-yl)phenyl]-N-[4-(pyridin-4-yl)-1,3-thiazol-2-yl]tetrahydro-2H-pyran-4-carboxamide] | 0.0035 µM | 0.31 µM
Nc1ncc(-c2ccc(C3(C(=O)Nc4ccc5ncsc5c4)CCC3)cc2)cn1 [Example 204, 1-[4-(2-aminopyrimidin-5-yl)phenyl]-N-(1,3-benzothiazol-6-yl)cyclobutanecarboxamide] | 0.0028 µM | 0.415 µM
Cc1nc(-c2ccc(NC(=O)C3(c4ccc(-c5cnc6[nH]cnc6c5)cc4)CCOCC3)nc2)cs1 [Example 197, 4-[4-(3H-imidazo[4,5-b]pyridin-6-yl)phenyl]-N-[5-(2-methyl-1,3-thiazol-4-yl)pyridin-2-yl]tetrahydro-2H-pyran-4-carboxamide] | 0.027 µM | 2.44 µM
COc1cncc(-c2ccc(NC(=O)C(C)(c3ccc(-c4cnc5c(c4)CCN5)cc3)C(C)C)nc2)c1 (stereo not drawn) [Example 165, 2-[4-(2,3-dihydro-1H-pyrolo[2,3-b]pyridin-5-yl)phenyl]-N-(5'-methoxy-3,3'-bipyridin-6-yl)-2,3-dimethylbutanamide] | 0.0014 µM | 0.354 µM
Nc1ncc(-c2ccc(C3(C(=O)Nc4ccc(C(F)(F)F)c(F)c4)CCOCC3)cc2)cn1 [Example 83, 4-[4-(2-aminopyrimidin-5-yl)phenyl]-N-[3-fluoro-4-(trifluoromethyl)phenyl] tetrahydro-2H-pyran-4-carboxamide] | 0.0145 µM | 1.06 µM
Nc1ncc(-c2ccc(C3(C(=O)Nc4ccc(Oc5ccccc5)cc4)CCOCC3)cc2)cn1 [Example 1, 4-[4-(2-aminopyrimidin-5-yl)phenyl]-N-(4-phenoxyphenyl)tetrahydro-2H-pyran-4-carboxamide] | 0.016 µM | 0.461 µM
Nc1ncc(-c2ccc(C3(C(=O)Nc4cnc(-c5ccccc5)nc4)CCOCC3)cc2)cn1 [Example 65, 4-[4-(2-aminopyrimidin-5-yl)phenyl]-N-(2-phenylpyrimidin-5-yl)tetrahydro-2H-pyran-4-carboxamide] | 0.014 µM | 0.905 µM
Nc1ncc(-c2ccc(C3(C(=O)Nc4ccc(OCc5ccccc5)c(Cl)c4)CCOCC3)cc2)cn1 [Example 49, 4-[4-(2-aminopyrimidin-5-yl)phenyl]-N-[4-(benzyloxy)-3-chlorophenyl]tetrahydro-2H-pyran-4-carboxamide] | 0.027 µM | 0.534 µM
COC(=O)c1cc(NC(=O)C2(c3ccc(-c4cnc(N)nc4)cc3)CCC2)ccc1O [Example 97, methyl 5-[({1-[4-(2-aminopyrimidin-5-yl)phenyl]cyclobutyl}carbonyl)amino]-2-hydroxybenzoate] | 0.00485 µM | 4.1 µM
COc1ccc(NC(=O)C2(c3ccc(-c4cnc(N)nc4)cc3)CCOCC2)cn1 [Example 2, 4-[4-(2-aminopyrimidin-5-yl)phenyl]-N-(6-methoxypyridin-3-yl)tetrahydro-2H-pyran-4-carboxamide] | 0.21 µM | 1.37 µM
N#Cc1ccnc(NC(=O)C2(c3ccc(-c4cnc(N)nc4)cc3)CCOCC2)c1 [Example 79, 4-[4-(2-aminopyrimidin-5-yl)phenyl]-N-(4-cyanopyridin-2-yl)tetrahydro-2H-pyran-4-carboxamide] | 0.0535 µM | > 3 µM
N#Cc1ccc(NC(=O)C2(c3ccc(-c4cnc(N)nc4)cc3)CCC2)cc1Cl [Example 195, 1-[4-(2-aminopyrimidin-5-yl)phenyl]-N-(3-chloro-4-cyanophenyl)cyclobutane-carboxamide] | 0.0027 µM | 0.175 µM
Nc1ncc(-c2ccc(C3(C(=O)Nc4cc(-c5ccncc5)no4)CCOCC3)cc2)cn1 [Example 58, 4-[4-(2-aminopyrimidin-5-yl)phenyl]-N-[3-(pyridin-4-yl)-1,2-oxazol-5-yl]tetrahydro-2H-pyran-4-carboxamide] | 0.17 µM | > 3 µM
COc1cncc(-c2ccc(NC(=O)C3(c4ccc(-c5cnc(N)nc5)cc4)CCC3)nc2)c1 [Example 130, 1-[4-(2-aminopyrimidin-5-yl)phenyl]-N-(5'-methoxy-3,3'-bipyridin-6-yl)cyclobutanecarboxamide] | 0.00152 µM | 0.225 µM
Nc1ncc(-c2ccc(C3(C(=O)Nc4ccc(C(F)(F)F)nc4)CCOCC3)cc2)cn1 [Example 48, 4-[4-(2-aminopyrimidin-5-yl)phenyl]-N-[6-(trifluoromethyl)pyridin-3-yl]tetrahydro-2H-pyran-4-carboxamide] | 0.084 µM | 1.63 µM
CCOC(=O)c1ccc(NC(=O)C2(c3ccc(-c4cnc(N)nc4)cc3)CCC2)nc1 [Example 237, ethyl 6-[({1-[4-(2-aminopyrimidin-5-yl)phenyl]cyclobutyl}carbonyl)amino]pyridine-3-carboxylate] | 0.0019 µM | 0.043 µM
CCC(C)(C(=O)Nc1ccc(-c2csc(C)n2)cn1)c1ccc(-c2cnc(N)nc2)cc1 (stereo not drawn) [Example 228, 2-[4-(2-aminopyrimidin-5-yl)phenyl]-2-methyl-N-[5-(2-methyl-1,3-thiazol-4-yl)pyridin-2-yl]butanamide] | 0.012 µM | 1.1 µM
Nc1ncc(-c2ccc(C3(C(=O)Nc4ccc(N5CCCCC5)cc4)CCOCC3)cc2)cn1 [Example 149, 4-[4-(2-aminopyrimidin-5-yl)phenyl]-N-[4-(piperidin-1-yl)phenyl]tetrahydro-2H-pyran-4-carboxamide] | 0.26 µM | 1.46 µM
Nc1ncc(-c2ccc(C3(C(=O)Nc4ccc(-c5ccncc5)cn4)CCC3)cc2)cn1 [Example 238] | 0.00235 µM | 0.0745 µM
Nc1ncc(-c2ccc(C3(C(=O)Nc4ccc(Cc5ccccc5)cc4)CCOCC3)cc2)cn1 [Example 54, 4-[4-(2-aminopyrimidin-5-yl)phenyl]-N-(4-benzylphenyl)tetrahydro-2H-pyran-4-carboxamide] | 0.0445 µM | 1.12 µM
Cn1cc(-c2ccc(NC(=O)C3(c4ccc(-c5cnc(N)nc5)cn4)CCC3)nc2)cn1 [Example 109, 1-[5-(2-aminopyrimidin-5-yl)pyridin-2-yl]-N-[5-(1-methyl-1H-pyrazol-4-yl)pyridin-2-yl]cyclobutanecarboxamide] | 0.0094 µM | 2.1 µM
Nc1ncc(-c2ccc(C3(C(=O)Nc4ccc(C5CCCCC5)cc4)CCOCC3)cc2)cn1 [Example 5, 4-[4-(2-aminopyrimidin-5-yl)phenyl]-N-(4-cyclohexylphenyl)tetrahydro-2H-pyran-4-carboxamide] | 0.101 µM | 2.97 µM
Nc1ncc(-c2ccc(C3(C(=O)Nc4ccc(C(F)(F)F)cn4)CCOCC3)cc2)cn1 [Example 23, 4-[4-(2-aminopyrimidin-5-yl)phenyl]-N-[5-(trifluoromethyl)pyridin-2-yl]tetrahydro-2H-pyran-4-carboxamide] | 0.0597 µM | > 3 µM
